From PubChem BioAssay AID1963852 (Molecular Pharmacology Branch, DTP, NCI, 2024)
pIC50: −log10 of the molar value.

System: 282377-053-R-J1-PDC complex spheroid viability
Assay: Anticancer human tumor 282377-053-R-J1-PDC patient-derived colon adenocarcinoma cell line growth inhibition [POLQ]
Conditions: for pIC50: curve of first compound; for viability, T/C: stronger effect = lower value
Summary of the method: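 Growth inhibition in 3D: complex spheroids (tumor PDC, HUVEC, MSC) treated with POLQ inhibitor combinations; where Cmax unknown, highest tested concentration 10 microM, except SN-38 at 1 microM.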

[1] = second compound 0.0316 µM, first compound 0.0316 µM
[2] = second compound 0.0316 µM, first compound 0.1 µM
[3] = second compound 0.0316 µM, first compound 0.316 µM
[4] = second compound 0.0316 µM, first compound 1 µM
[5] = second compound 0.0316 µM, first compound 3.16 µM
[6] = second compound 0.0316 µM, first compound 10 µM
[7] = second compound 0.1 µM, first compound 0.0316 µM
[8] = second compound 0.1 µM, first compound 0.1 µM
[9] = second compound 0.1 µM, first compound 0.316 µM
[10] = second compound 0.1 µM, first compound 1 µM
[11] = second compound 0.1 µM, first compound 3.16 µM
[12] = second compound 0.1 µM, first compound 10 µM
[13] = second compound 0.316 µM, first compound 0.0316 µM
[14] = second compound 0.316 µM, first compound 0.1 µM
[15] = second compound 0.316 µM, first compound 0.316 µM
[16] = second compound 0.316 µM, first compound 1 µM
[17] = second compound 0.316 µM, first compound 3.16 µM
[18] = second compound 0.316 µM, first compound 10 µM
[19] = second compound 1 µM, first compound 0.0316 µM
[20] = second compound 1 µM, first compound 0.1 µM
[21] = second compound 1 µM, first compound 0.316 µM
[22] = second compound 1 µM, first compound 1 µM
[23] = second compound 1 µM, first compound 3.16 µM
[24] = second compound 1 µM, first compound 10 µM
[25] = second compound 3.16 µM, first compound 0.0316 µM
[26] = second compound 3.16 µM, first compound 0.1 µM
[27] = second compound 3.16 µM, first compound 0.316 µM
[28] = second compound 3.16 µM, first compound 1 µM
[29] = second compound 3.16 µM, first compound 3.16 µM
[30] = second compound 3.16 µM, first compound 10 µM
[31] = second compound 10 µM, first compound 0.0316 µM
[32] = second compound 10 µM, first compound 0.1 µM
[33] = second compound 10 µM, first compound 0.316 µM
[34] = second compound 10 µM, first compound 1 µM
[35] = second compound 10 µM, first compound 3.16 µM
[36] = second compound 10 µM, first compound 10 µM
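Also: spheroids exposed to compounds for seven days.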
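For viability, T/C in this document: 100% = DMSO vehicle control viability.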

CC1COCCN1c1cc(-c2ccnn2C)c2ccnc(-c3ccn[nH]3)c2n1 (stereo not drawn) + Nc1ccc(C#CCN(C(=O)Cc2ncc(C(F)(F)F)cc2C(F)(F)F)c2ccc(F)cc2)nn1
pIC50 (second compound 0.0316 µM): 5.67
pIC50 (second compound 0.1 µM): 6.14
pIC50 (second compound 0.316 µM): 6.08
pIC50 (second compound 1 µM): 6.09
pIC50 (second compound 3.16 µM): 6.00
pIC50 (second compound 10 µM): 5.92
viability, T/C [1]: 84.6%
viability, T/C [2]: 78.7%
viability, T/C [3]: 69.4%
viability, T/C [4]: 62.3%
viability, T/C [5]: 42.6%
viability, T/C [6]: 35.1%
viability, T/C [7]: 86.2%
viability, T/C [8]: 88%
viability, T/C [9]: 66.4%
viability, T/C [10]: 44.3%
viability, T/C [11]: 41.1%
viability, T/C [12]: 41.2%
viability, T/C [13]: 91%
viability, T/C [14]: 81%
viability, T/C [15]: 58.8%
viability, T/C [16]: 49.4%
viability, T/C [17]: 45.8%
viability, T/C [18]: 41.5%
viability, T/C [19]: 94.5%
viability, T/C [20]: 83.2%
viability, T/C [21]: 67.3%
viability, T/C [22]: 43.8%
viability, T/C [23]: 41.5%
viability, T/C [24]: 33%
viability, T/C [25]: 100%
viability, T/C [26]: 78.3%
viability, T/C [27]: 67.3%
viability, T/C [28]: 49.4%
viability, T/C [29]: 37.3%
viability, T/C [30]: 44.8%
viability, T/C [31]: 103%
viability, T/C [32]: 84.2%
viability, T/C [33]: 78.5%
viability, T/C [34]: 47.9%
viability, T/C [35]: 39.5%
viability, T/C [36]: 46.3%

COc1cccc2c1C(=O)c1c(O)c3c(c(O)c1C2=O)CC(O)(C(=O)CO)CC3OC1CC(N)C(O)C(C)O1 (stereo not drawn) + COC1C(OC(N)=O)C(O)C(Oc2ccc3c(O)c(NC(=O)c4ccc(O)c(CC=C(C)C)c4)c(=O)oc3c2C)OC1(C)C
pIC50 (second compound 0.0316 µM): 6.56
pIC50 (second compound 0.1 µM): 6.49
pIC50 (second compound 0.316 µM): 6.55
pIC50 (second compound 1 µM): 6.41
pIC50 (second compound 3.16 µM): 6.54
pIC50 (second compound 10 µM): 6.42
viability, T/C [1]: 92.3%
viability, T/C [2]: 81%
viability, T/C [3]: 43.9%
viability, T/C [4]: 17.5%
viability, T/C [5]: 1.11%
viability, T/C [6]: 2.81%
viability, T/C [7]: 117%
viability, T/C [8]: 82.7%
viability, T/C [9]: 57.6%
viability, T/C [10]: 16.5%
viability, T/C [11]: 0.71%
viability, T/C [12]: 2.97%
viability, T/C [13]: 95.5%
viability, T/C [14]: 84.9%
viability, T/C [15]: 44.9%
viability, T/C [16]: 16.1%
viability, T/C [17]: 0.67%
viability, T/C [18]: 2.69%
viability, T/C [19]: 97.1%
viability, T/C [20]: 88.6%
viability, T/C [21]: 58%
viability, T/C [22]: 14.3%
viability, T/C [23]: 1.36%
viability, T/C [24]: 2.91%
viability, T/C [25]: 90.2%
viability, T/C [26]: 88.9%
viability, T/C [27]: 44.8%
viability, T/C [28]: 13.7%
viability, T/C [29]: 0.83%
viability, T/C [30]: 2.03%
viability, T/C [31]: 84.4%
viability, T/C [32]: 76.8%
viability, T/C [33]: 56.8%
viability, T/C [34]: 16.3%
viability, T/C [35]: 2.09%
viability, T/C [36]: 3.61%

CCc1cc2c(N3CCc4c(cc(Cn5ccnc5)cc4-c4cn(C)nc4C(F)(F)F)C3=O)ccnc2c(OC)n1 + COC1C(OC(N)=O)C(O)C(Oc2ccc3c(O)c(NC(=O)c4ccc(O)c(CC=C(C)C)c4)c(=O)oc3c2C)OC1(C)C
pIC50 (second compound 0.0316 µM): < 5.00
pIC50 (second compound 0.1 µM): < 5.00
pIC50 (second compound 0.316 µM): < 5.00
pIC50 (second compound 1 µM): < 5.00
pIC50 (second compound 3.16 µM): < 5.00
pIC50 (second compound 10 µM): < 5.00
viability, T/C [1]: 114%
viability, T/C [2]: 132%
viability, T/C [3]: 139%
viability, T/C [4]: 144%
viability, T/C [5]: 135%
viability, T/C [6]: 72.3%
viability, T/C [7]: 120%
viability, T/C [8]: 153%
viability, T/C [9]: 140%
viability, T/C [10]: 146%
viability, T/C [11]: 118%
viability, T/C [12]: 90.6%
viability, T/C [13]: 147%
viability, T/C [14]: 110%
viability, T/C [15]: 132%
viability, T/C [16]: 130%
viability, T/C [17]: 127%
viability, T/C [18]: 78%
viability, T/C [19]: 124%
viability, T/C [20]: 109%
viability, T/C [21]: 123%
viability, T/C [22]: 134%
viability, T/C [23]: 132%
viability, T/C [24]: 95.4%
viability, T/C [25]: 124%
viability, T/C [26]: 124%
viability, T/C [27]: 150%
viability, T/C [28]: 145%
viability, T/C [29]: 118%
viability, T/C [30]: 86.9%
viability, T/C [31]: 115%
viability, T/C [32]: 127%
viability, T/C [33]: 144%
viability, T/C [34]: 161%
viability, T/C [35]: 113%
viability, T/C [36]: 92.9%

CCCS(=O)(=O)Nc1ccc(F)c(C(=O)c2c[nH]c3ncc(-c4ccc(Cl)cc4)cc23)c1F + Nc1ccc(C#CCN(C(=O)Cc2ncc(C(F)(F)F)cc2C(F)(F)F)c2ccc(F)cc2)nn1
pIC50 (second compound 0.0316 µM): < 5.00
pIC50 (second compound 0.1 µM): < 5.00
pIC50 (second compound 0.316 µM): < 5.00
pIC50 (second compound 1 µM): < 5.00
pIC50 (second compound 3.16 µM): < 5.00
pIC50 (second compound 10 µM): < 5.00
viability, T/C [1]: 94.3%
viability, T/C [2]: 77%
viability, T/C [3]: 71.1%
viability, T/C [4]: 57.9%
viability, T/C [5]: 60.4%
viability, T/C [6]: 61.9%
viability, T/C [7]: 105%
viability, T/C [8]: 80.2%
viability, T/C [9]: 77%
viability, T/C [10]: 60.5%
viability, T/C [11]: 77.2%
viability, T/C [12]: 80.7%
viability, T/C [13]: 81.5%
viability, T/C [14]: 81%
viability, T/C [15]: 73%
viability, T/C [16]: 70.9%
viability, T/C [17]: 66.2%
viability, T/C [18]: 74.1%
viability, T/C [19]: 99.8%
viability, T/C [20]: 93.9%
viability, T/C [21]: 68.9%
viability, T/C [22]: 62.4%
viability, T/C [23]: 59.1%
viability, T/C [24]: 60.1%
viability, T/C [25]: 120%
viability, T/C [26]: 90%
viability, T/C [27]: 69.5%
viability, T/C [28]: 78.8%
viability, T/C [29]: 63.4%
viability, T/C [30]: 70.4%
viability, T/C [31]: 107%
viability, T/C [32]: 97.6%
viability, T/C [33]: 80.8%
viability, T/C [34]: 71.9%
viability, T/C [35]: 63.9%
viability, T/C [36]: 65.3%
